# According to PMC9212912 (Structure (London, England : 1993), 2022):
# Test system: SARS-CoV-2 (Delta variant, pangolin linage B.1.617.2)
# Experiment: microbe, parasite or virus in culture
# Assay type: cell-based
Structure (SMILES),"inhibition at 0.01 µM (Severe acute respiratory syndrome coronavirus 2, Calu-3, 24 h, read-out: Inhibition of SARS-CoV-2 infection in Calu-3 cells)",Inhibition of SARS-CoV-2 infection in Calu-3 cells (0.01 µM)
Cc1sc2c(c1C)C(c1ccc(Cl)cc1)=N[C@@H](CC(=O)Nc1ccc(O)cc1)c1nnc(C)n1-2 [OTX015],69%,
Cc1sc2c(c1C)C(c1ccc(Cl)cc1)=N[C@@H](CC(=O)OC(C)(C)C)c1nnc(C)n1-2 [JQ1],,72%
